Results from ChEMBL document CHEMBL1201862, “PubChem BioAssay data set” (2004).
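Protocol summary: plate cells (96-well), add compound at 5 concentrations, incubate 48 h, interpolate endpoints linearly. The concentration for 50% growth inhibition is given as GI50.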 The source made the active and inactive calls. Rule as the data show it: active = GI50 up to about 1.1 µM and inactive = higher.

Legend:
Experiment in all cases: NCI tumour cell line growth inhibition, 48 h
KM-20L2 = system: KM-20L2
SNB-78 = system: SNB-78
XF498 = system: XF498
M19-MEL = system: M19-MEL
DLD-1 = system: DLD-1
DMS-114 = system: DMS-114
LXFL 529 = system: LXFL 529
DMS-273 = system: DMS-273
RXF 631 = system: RXF 631

SMILES | GI50 (KM-20L2) | GI50 (SNB-78) | GI50 (XF498) | GI50 (M19-MEL) | GI50 (DLD-1) | GI50 (DMS-114) | GI50 (LXFL 529) | GI50 (DMS-273) | GI50 (RXF 631)
O=C(O)c1cc(-c2ccccc2O)nc2ccccc12 | > 100 µM (inactive) | > 100 µM (inactive) | > 100 µM (inactive) | > 100 µM (inactive) | > 100 µM (inactive) | > 100 µM (inactive) | > 100 µM (inactive) |  | 
Cc1ccc(C(=O)NC(C)C)cc1/N=N/N(C)C | > 100 µM (inactive) | > 100 µM (inactive) |  | > 100 µM (inactive) | 65 µM (inactive) |  | > 100 µM (inactive) | > 100 µM (inactive) | 
Oc1ccc(O)c(-n2cccn2)c1 | > 100 µM (inactive) | 58.5 µM (inactive) | > 100 µM (inactive) | 30 µM (inactive) | 63 µM (inactive) | 29.6 µM (inactive) | 20.9 µM (inactive) | 75.5 µM (inactive) | 50 µM (inactive)
CC(=O)O[C@H]1CCN2C(=O)C=CC(OCc3ccccc3)C12 (stereo partly drawn) | > 100 µM (inactive) | > 100 µM (inactive) | > 100 µM (inactive) | > 100 µM (inactive) | > 100 µM (inactive) | > 100 µM (inactive) | > 100 µM (inactive) | > 100 µM (inactive) | 
CCOC(=O)C(=O)Nc1nc2c(OCC)cccc2s1 | > 100 µM (inactive) | > 100 µM (inactive) |  | > 100 µM (inactive) | > 100 µM (inactive) | > 100 µM (inactive) | > 100 µM (inactive) | > 100 µM (inactive) | > 100 µM (inactive)
N#CC(/C(=N/NC(=O)C(=O)NN)C(=O)Nc1nc([N+](=O)[O-])cs1)c1ccc(Cl)cc1 (stereo not drawn) | > 100 µM (inactive) | > 100 µM (inactive) | > 100 µM (inactive) | > 100 µM (inactive) | > 100 µM (inactive) | > 100 µM (inactive) | > 100 µM (inactive) |  | 
O=C(Nc1cccc(NC(=O)c2cc(=O)c3ccccc3o2)n1)c1cc(=O)c2ccccc2o1 | 68.4 µM (inactive) | > 100 µM (inactive) |  | > 100 µM (inactive) | 75.9 µM (inactive) | 19.2 µM (inactive) | 7.69 µM (inactive) | 9.64 µM (inactive) | 51.5 µM (inactive)
O=c1c2ccccc2n2nnc3ccc(NCCNCCO)c1c32 | 1.29 µM (inactive) | 7.71 µM (inactive) | 5.7 µM (inactive) | 2.26 µM (inactive) | 2.19 µM (inactive) | 3.2 µM (inactive) | 2.42 µM (inactive) | 2.62 µM (inactive) | 1.85 µM (inactive)
COc1ccccc1NC(=O)C1=C(C)NC(C)=C(C(=O)Nc2ccccc2OC)C1c1ccc(C2C(C(=O)Nc3ccccc3OC)=C(C)NC(C)=C2C(=O)Nc2ccccc2OC)cc1 | 1.71 µM (inactive) | 4.16 µM (inactive) | 2.21 µM (inactive) | 3.15 µM (inactive) | 1.22 µM (inactive) | 3.52 µM (inactive) | 1.89 µM (inactive) | 2.32 µM (inactive) | 3.46 µM (inactive)
O=C(c1ccccc1)C(c1ccccc1)C1(O)C(=O)Nc2ccccc21 (stereo not drawn) | > 100 µM (inactive) | > 100 µM (inactive) | > 100 µM (inactive) | > 100 µM (inactive) | > 100 µM (inactive) | > 100 µM (inactive) | > 100 µM (inactive) | > 100 µM (inactive) | > 100 µM (inactive)
Cn1c(N)c(-c2c3ccccc3nc3ccccc23)c(=O)n(C)c1=O | > 100 µM (inactive) |  |  | > 100 µM (inactive) |  | > 100 µM (inactive) | > 100 µM (inactive) |  | 
CC1=C2CCCC2=C/C(=N/Nc2ccc([N+](=O)[O-])cc2[N+](=O)[O-])CC1 | > 100 µM (inactive) | > 100 µM (inactive) | > 100 µM (inactive) | > 100 µM (inactive) | > 100 µM (inactive) | > 100 µM (inactive) | > 100 µM (inactive) | > 100 µM (inactive) | 
CS(=O)(=O)CSCSSCS(C)(=O)=O | 55.8 µM (inactive) | 49.4 µM (inactive) | 32 µM (inactive) | > 57.9 µM (inactive) | 30 µM (inactive) | 27.3 µM (inactive) | 18.1 µM (inactive) | 25.9 µM (inactive) | 32 µM (inactive)
CCOC(=O)CC1NC(=O)CS1 (stereo not drawn) | > 100 µM (inactive) | > 100 µM (inactive) |  | > 100 µM (inactive) | 42.5 µM (inactive) | 25.1 µM (inactive) | > 100 µM (inactive) | 37.7 µM (inactive) | > 100 µM (inactive)
CCC1=C(CC2NCCc3ccccc32)CC2c3cc(OC)c(OC)cc3CCN2C1 (stereo not drawn) | 0.891 µM (active) | 1.44 µM (inactive) | 0.8 µM (active) | 0.627 µM (active) | 2.49 µM (inactive) |  | 0.995 µM (active) | 0.618 µM (active) | 1.45 µM (inactive)
Cc1ccc(S(=O)(=O)n2cc(/C=C/C#N)c(/C=C/C#N)c2)cc1 | 93.3 µM (inactive) |  | > 100 µM (inactive) | > 100 µM (inactive) |  | 22.6 µM (inactive) | > 100 µM (inactive) | 49.5 µM (inactive) | > 100 µM (inactive)
CCCCCCCCCCCCCCCC(=O)OCC1OC(n2ccc(N)nc2=O)C(O)C1O (stereo not drawn) | > 24.8 µM (inactive) | > 100 µM (inactive) | > 100 µM (inactive) | 2.26 µM (inactive) |  |  | > 100 µM (inactive) | 2.04 µM (inactive) | 
C#CCN(C)C(=O)N(CC#C)N=O | > 100 µM (inactive) | > 100 µM (inactive) |  | > 100 µM (inactive) | > 100 µM (inactive) | > 100 µM (inactive) | > 100 µM (inactive) | > 100 µM (inactive) | > 100 µM (inactive)
COc1ccc(CNc2nc3ccccc3nc2-c2cccs2)cc1OC | 68.4 µM (inactive) | 82.8 µM (inactive) | 16 µM (inactive) | 33.1 µM (inactive) |  |  | 15.7 µM (inactive) | 50.5 µM (inactive) | 29.7 µM (inactive)
CCc1cc(Cc2cc(CC)c(NC(=O)C3=CC(=O)CC(c4ccc(OC)cc4)O3)c(CC)c2Cl)c(Cl)c(CC)c1NC(=O)C1=CC(=O)CC(c2ccc(OC)cc2)O1 (stereo not drawn) | 26.7 µM (inactive) | 28.2 µM (inactive) |  | 17.3 µM (inactive) | 18.4 µM (inactive) | 17.7 µM (inactive) | 18 µM (inactive) | 21.7 µM (inactive) | 89.7 µM (inactive)
CN(C)CCNC(=O)c1cccc2c1nc(-c1ccccc1)c1ccccc12 |  | 10.4 µM (inactive) |  | 5.2 µM (inactive) | 2.33 µM (inactive) |  |  | 2.91 µM (inactive) | 1.05 µM (active)
